Data taken from paper PMC7496096, “Functional Characterisation of ClpP Mutations Conferring Resistance to Acyldepsipeptide Antibiotics in Firmicutes” (Chembiochem, 2020).
≈ marks a conversion by molar mass, not a printed value.

Legend:
S. pneumoniae RC4 = type: cell-based, Streptococcus pneumoniae; conditions: resistant clone of S. pneumoniae G9A; ClpP A94→G (ClpP core; β4)
Protocol: (§1) Determination of antibacterial activity: ADEP1 was purified from the culture supernatant of S. hawaiiensis NRRL 15010 as described.4 ADEPs 2, 4, 7, 9 were custom synthesised by EMC Microcollections, Tübingen, or provided by AiCuris, Wuppertal, Germany. The minimal inhibitory concentration (MIC) was determined by broth microdilution in Mueller‐Hinton broth (without cation adjustment) according to the guidelines of the Clinical Laboratory Standards Institute (CLSI).69 The inoculum was set to 5×10^4 CFU mL^−1 to allow some distance to the determined spontaneous resistance frequencies. […] All other ADEPs were used from DMSO stock solutions kept at −20 °C.
(§2) Screening for ADEP‐resistant mutants and determination of resistance rates: Single colonies of wild‐type strains grown on Mueller‐Hinton agar plates overnight were suspended in sterile saline and a final inoculum of 5×10^6 cells was spread on plates supplemented with different ADEP congeners at 4× and 10× the MIC. For B. subtilis strain 3xclpP, ADEP7‐containing Mueller‐Hinton agar plates were additionally supplemented with 1 mM IPTG. Resistant colonies were counted after 24 h at 37 °C and colonies were randomly chosen for MIC determinations and sequencing. Mutations in the clpP gene of the respective isolated mutants were analysed by amplifying the clpP gene (and upstream promoter region) by PCR and sequencing of the resulting PCR amplicons (LGC genomics). Sequencing data were analysed by using SnapGene software (GSL Biotech).

B. subtilis RC10 = type: cell-based, Bacillus subtilis; conditions: resistant clone of B. subtilis 168; ClpP A177→V (C-terminus; α7)
Protocol: as §1, §2

B. subtilis RC11 = type: cell-based, Bacillus subtilis; conditions: resistant clone of B. subtilis 168; ClpP Q132→STOP, premature stop
Protocol: as §1, §2

B. subtilis RC6 = type: cell-based, Bacillus subtilis; conditions: resistant clone of B. subtilis 168; ClpP N65→N; Y183→F (C-terminus; α7)
Protocol: as §1, §2

B. subtilis RC5 = type: cell-based, Bacillus subtilis; conditions: resistant clone of B. subtilis 168; ClpP K85→STOP, premature stop
Protocol: as §1, §2

## C[C@@H]1C[C@H]2C(=O)OC[C@H](NC(=O)[C@H](Cc3cc(F)cc(F)c3)NC(=O)CCC3CCCCC3)C(=O)N3CCC[C@H]3C(=O)N3CCCC[C@H]3C(=O)N[C@@H](C)C(=O)N2C1 [ADEP2]
S. pneumoniae RC4
  MIC: 16 µg/mL (≈ 20 µM)
B. subtilis RC10
  MIC: >64 µg/mL
B. subtilis RC11
  MIC: >64 µg/mL
B. subtilis RC6
  MIC: >64 µg/mL
B. subtilis RC5
  MIC: >64 µg/mL
